Each structure is given as a SMILES string. pIC50: −log10 of the molar value.

Sequence of HPK1 (Q92918 whole entry): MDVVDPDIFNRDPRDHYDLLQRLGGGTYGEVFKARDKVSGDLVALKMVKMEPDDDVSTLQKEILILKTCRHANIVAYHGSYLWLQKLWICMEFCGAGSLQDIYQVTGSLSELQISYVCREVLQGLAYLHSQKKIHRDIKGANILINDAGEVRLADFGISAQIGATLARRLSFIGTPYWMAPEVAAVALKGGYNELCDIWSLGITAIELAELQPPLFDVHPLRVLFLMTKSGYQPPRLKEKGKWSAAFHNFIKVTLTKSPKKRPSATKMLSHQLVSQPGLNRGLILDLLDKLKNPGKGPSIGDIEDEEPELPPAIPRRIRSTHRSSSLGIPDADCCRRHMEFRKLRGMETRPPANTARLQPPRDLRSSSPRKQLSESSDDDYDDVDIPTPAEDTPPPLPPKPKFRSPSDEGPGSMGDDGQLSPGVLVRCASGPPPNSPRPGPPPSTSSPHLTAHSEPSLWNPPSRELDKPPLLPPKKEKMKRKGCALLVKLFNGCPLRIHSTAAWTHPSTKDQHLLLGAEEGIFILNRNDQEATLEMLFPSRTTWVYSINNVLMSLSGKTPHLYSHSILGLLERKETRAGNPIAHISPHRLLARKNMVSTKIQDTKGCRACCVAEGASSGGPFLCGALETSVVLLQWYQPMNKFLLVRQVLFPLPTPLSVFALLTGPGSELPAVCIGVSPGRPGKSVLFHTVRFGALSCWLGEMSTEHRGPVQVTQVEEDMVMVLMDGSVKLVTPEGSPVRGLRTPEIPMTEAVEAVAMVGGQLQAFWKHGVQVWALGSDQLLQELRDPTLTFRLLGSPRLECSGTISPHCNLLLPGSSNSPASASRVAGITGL

This test concerns the target HPK1 (Homo sapiens (Human), UniProt Q92918). The test is described as follows: HPK1 biochemical enzyme assay (microfluidic mobility shift assay). The note with it: 1.5 nM HPK1, ATP 1 mM final, 30 min preincubation, 60 min at RT, Caliper EZ Reader; read-out: HPK1 1000UMATP caliper IC50. The procedure, abridged:
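Ten-point compound titrations (top 3 μM final) preincubated 30 min with HPK1 and substrate, then reaction started with 1 mM ATP and 1 μM substrate, 5 mM MgCl2. After 60 min at RT, reaction terminated and product measured by microfluidic mobility shift.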
A word on the pIC50: it is −log10 of the IC50, conventionally taken in molar units. With `Cc1nc2ccccn2c1-c1ncc(Nc2ccc(N3CCC(O)CC3)cn2)c2c1CNC2=O` [I-248, 7-[[5-(4-hydroxy-1-piperidyl)-2-pyridyl]-amino]-4-(2-methylimidazo [1,2-a]pyridin-3-yl)-2,3-dihydropyrrolo [3,4-c]pyridin-1-one], the pIC50 is less than 6.00.
As for `O=C1NCc2c(-c3cnc4cccnn34)ccc(Nc3ccc(N4CCC(O)CC4)cn3)c21` [I-162, 7-[[5-(4-hydroxy-1-piperidyl)-2-pyridyl]amino]-4-imidazo[1,2-b]pyridazin-3-yl-isoindolin-1-one], the pIC50 was more than 7.00.
Take `COC1CN(Cc2nc(Nc3ccc(-c4cnc5cc(F)ccn45)c4c3C(=O)NC4)ccc2[C@@H]2CCOC2)C1` [I-549, (S)-4-(7-fluoroimidazo [1,2-a]pyridin-3-yl)-7-((6-((3-methoxyaze-tidin-1-yl)methyl)-5-(tetrahydrofuran-3-yl)pyridin-2-yl)amino)isoin-dolin-1-one]: the pIC50 was more than 7.00.
As for `CN(C)Cc1nc(Nc2ccc(-c3cnc4cc(F)ccn34)c3c2C(=O)NC3)ccc1N1CCO[C@@H](C(C)(C)O)C1` [I-775, (R)-7-((6-((dimethylamino)-methyl)-5-(2-(2-hydroxypropan-2-yl)morpho-lino)pyridin-2-yl)amino)-4-(7-fluoroimidazo [1,2-a]pyridin-3-yl)isoindolin-1-one], the pIC50 was more than 7.00.
Turning to `Cc1ccn2c(-c3ccc(Nc4ccc([C@H]5CCOC5)cn4)c4c3CNC4=O)cnc2c1` [I-191, (R)-4-(7-methylimidazo [1,2-a]pyridin-3-yl)-7-((5-(tetrahydro-furan-3-yl)pyridin-2-yl)amino)isoin-dolin-1-one], the pIC50 is more than 7.00.
In the case of `CC1(O)CCN(c2ccc(Nc3ccc(-c4cnc5cnccn45)c4c3C(=O)NC4)nc2)CC1` [I-313, 7-((5-(4-hydroxy-4-methylpiperidin-1-yl)pyridin-2-yl)amino)-4-(imidazo[1,2-a]pyrazin-3-yl)isoindolin-1-one] it was more than 7.00; in that of `CN1CCN(c2ccc(Nc3ccc(-c4cnc5ccccn45)c4c3C(=O)NC4)nc2)CC1` [I-39, 4-(imidazo[1,2-a]pyridin-3-yl)-7-((5-(4-methylpiperazin-1-yl)pyridin-2-yl)amino)isoindolin-1-one], more than 7.00.
For `CN1CCN(CC2(O)CCN(c3ccc(Nc4ccc(-c5cnc6cnccn56)c5c4C(=O)NC5)nc3)CC2)CC1` [I-412, 7-((5-(4-hydroxy-4-((4-methylpiperazin-1-yl)methyl)piper-idin-1-yl)pyridin-2-yl)amino)-4-(imidazo[1,2-a]pyrazin-3-yl)isoindolin-1-one], the pIC50 was more than 7.00.
Turning to `O=C1NCc2c(-c3cnc4cc(F)ccn34)ccc(Nc3ccc(N4CCC[C@@H](O)C4)cn3)c21` [I-174, 4-(7-fluoroimidazo [1,2-a]pyridin-3-yl)-7-[[5-[(3R)-3-hydroxy-1-piperipyl]-2-pyripyl]amino] isoindolin-1-one], the pIC50 was more than 7.00.
In the case of `CN(Cc1nc(Nc2ccc(-c3cnc4cc(F)ccn34)c3c2C(=O)NC3)ccc1[C@H]1CCOC1)C1CC1` [I-737] it was more than 7.00; in that of `CN(C)Cc1nc(Nc2cnc(-c3ccnc4c3ccn4C)c3c2C(=O)NC3)ccc1N1CCOC2(CC2)C1` [I-839, 7-((6-((dimethylamino)-methyl)-5-(4-oxa-7-azaspiro[2.5]octan-7-yl)pyridin-2-yl)amino)-4-(1-methyl-1H-pyrrolo[2,3-b]pyridin-4-yl)-2,3-dihydro-1H-pyrrolo[3,4-c]pyridin-1-one], more than 7.00; in that of `CN(C)CC1(O)CCN(c2ccc(Nc3ccc(-c4cnc5cc(F)ccn45)c4c3C(=O)NC4)nc2)CC1` [I-366, 7-((5-(4-((dimethylamino)-methyl)-4-hydroxypiperidin-1-yl)pyridin-2-yl)amino)-4-(7-fluoroimidazo [1,2-a]pyridin-3-yl)isoindolin-1-one], more than 7.00.

For the origin of these results see patent US11021481B2, “Substituted isoindolin-1-ones and 2,3-dihydro-1h-pyrrolo[3,4-c]pyridin-1-ones as HPK1 antagonists” (Nimbus Saturn, Inc., priority 2019, dated 2021).
